Tests used:
[1] = system: Hep G2 cells; experiment: Toxicity on the cells by staining with neutral red; type: cell-based, human; conditions: for the concentrations studied
Description: In the absence of a chemical treatment, the response of the cells is 100% (0% inhibition). Under the conditions used, the effect of DMSO on the cells is negligible. The toxicity of the chemical substances on the cells is measured by the technique of staining with neutral red.
(§1) The percentage of inhibition is calculated only for the substances that show no toxicity on the Hep G2 cells.

[2] = system: secretion of apo CIII; experiment: Reduction of apo CIII secretion by Hep G2 human hepatocytes in culture (ELISA); type: cell-based; conditions: HepG2, Hep G2 cells, 24 hours incubation, read-out: concentration which gives a 50% inhibition of the secretion of Apo CIII
Description: The hypolipidaemiant activity of the compounds of the invention result from their ability to reduce the secretion of apo CIII.
The Hep G2 cell line is derived from a human hepatic carcinoma (ref. ECACC No. 85011430).
The cells are cultured at 37° C., 5% CO2 in 96-well microtitration plates at a rate of 40 000 cells (200 μl) per well in a DMEM buffer, 10% foetal calf serum, 1% Glutamax+antibiotics, for 24 hours. […] The cells are incubated for 24 hours at 37° C., 5% CO2 and the medium is then removed.
The amount of apolipoprotein CIII secreted into the medium is measured by means of an assay of ELISA type. Each sample of culture medium is diluted 5-fold in a 100 mM phosphate buffer, 1% BSA. […]
The optical density is read directly using a spectrophotometer at 492 nm. The amount of Apo CIII is calculated relative to a calibration curve produced using an assayed human serum of Apo CIII and diluted under the same conditions as the Apo CIII contained in the culture medium. […]
The active substances bring about a reduction in the secretion of Apo CIII into the medium by the adherent cells. The concentration of Apo CIII is measured for each treatment and compared with the control test (no treatment).
The percentage of inhibition is calculated according to: […]
as §1

melting point | SMILES | cell toxicity [1] | IC50 [2]
– | C1=C(c2ccc(-c3ccccc3)cc2)N2CCc3ccccc3N=C2S1 [Example 4, 3-(biphenyl-4-yl)-5,6-dihydrothiazolo[2,3-b]-1,3-benzodiazepine] | No cell toxicity is observed | 17.4 µM
231 to 233 °C | CCOC(=O)c1ccc(C2=CSC3=Nc4ccccc4CCN23)cc1 [Example 36, 3-[4-(ethoxycarbonyl)phenyl]-5,6-dihydro-thiazolo-[2,3-b]-1,3-benzodiazepine] | – | –
188.5 to 189.5 °C | C1=C(c2ccc3ccccc3c2)N2CCc3ccccc3N=C2S1 [Example 47] | – | –
194 to 196 °C | CC1=CSC2=Nc3ccccc3CCN12 [Example 50] | – | –
204 to 205 °C | C1=C(c2ccc(Oc3ccccc3)cc2)N2CCc3ccccc3N=C2S1 [Example 67] | – | –
